As to `*C(=O)Nc1ccc(Oc2ccc(Oc3ccc(NC(=O)c4ccc5c(c4)C(=O)N(c4ccc(Oc6ccc(C7(c8ccc(Oc9ccc(N%10C(=O)c%11ccc(*)cc%11C%10=O)cc9)cc8)CC8CC7C7CCCC87)cc6)cc4)C5=O)cc3)c(C(C)(C)C)c2)cc1` (repeat unit), the glass transition temperature is 275.00 °C.
To `*C(=O)Nc1ccc(Oc2cccc(Oc3ccc(NC(=O)c4ccc5c(c4)C(=O)N(c4ccc(Oc6cccc(Oc7ccc(N8C(=O)c9ccc(*)cc9C8=O)cc7)c6C#N)cc4)C5=O)cc3)c2C#N)cc1` (repeat unit) belongs 220.00 °C; to `*C(=O)Oc1ccc(OC(=O)c2ccc3c(c2)C(=O)N(C2CCC(N4C(=O)c5ccc(*)cc5C4=O)CC2)C3=O)cc1` (repeat unit), 360.00 °C; to `*CCCCCCCCCCOc1ccc(OC(=O)c2ccc(OCCOCCOCCOc3ccc(C(=O)Oc4ccc(O*)cc4)cc3)cc2)cc1` (repeat unit), 64.00 °C.
To `*CCCCCCOc1ccc(OC(=O)c2ccc(C(=O)Oc3ccc(O*)cc3)cc2)cc1` (repeat unit) belongs 53.00 °C.
To `*CCCCCOc1ccc(OC(=O)c2ccc(C(=O)Oc3ccc(O*)cc3)cc2)cc1` (repeat unit) belongs 112.00 °C; to `*CCCOCCCCOCCCN1C(=O)c2ccc(C(=O)Oc3ccc(OC(=O)c4ccc5c(c4)C(=O)N(*)C5=O)c(-c4ccccc4)c3)cc2C1=O` (repeat unit), 71.00 °C; to `*CCOCCOCCN1C(=O)c2ccc(C(=O)Oc3ccc(OC(=O)c4ccc5c(c4)C(=O)N(*)C5=O)cc3)cc2C1=O` (repeat unit), 105.00 °C.
As to `*OP(=O)(Oc1ccccc1)Oc1ccc(*)cc1` (repeat unit), the glass transition temperature turned out to be 97.00 °C.
With `*OS(=O)(=O)c1cccc(S(=O)(=O)Oc2ccc(C3(c4ccc(*)cc4)CCCCC3)cc2)c1` (repeat unit) the figure was 127.00 °C; with `*O[Si](C)(C)CCCCCCOC(=O)C(C)Oc1ccc(OC(=O)c2ccc(-c3ccc(OCCCCCCCCCC[Si](*)(C)C)cc3)cc2)cc1` (repeat unit), 35.00 °C; with `*O[Si](C)(C)CCCCCCOC(=O)C(C)Oc1ccc(OC(=O)c2ccc(-c3ccc(OCCCCCCCCCC[Si](*)(C)C)cc3)cc2)cc1[N+](=O)[O-]` (repeat unit), 20.00 °C.
With `*O[Si](Oc1ccc(C2(c3ccc(*)cc3)c3ccccc3-c3ccccc32)cc1)(c1ccccc1)c1ccccc1` (repeat unit) the figure was 166.00 °C; with `*Oc1c(C)c(C)c(NC(=O)c2ccc(C(=O)Nc3ccc(*)cc3)cc2)c(C)c1C` (repeat unit), 333.00 °C; with `*Oc1c(F)c(F)c(COC(c2cccc(C(OCc3c(F)c(F)c(Oc4ccc(Cc5ccc(*)cc5)cc4)c(F)c3F)(C(F)(F)F)C(F)(F)F)c2)(C(F)(F)F)C(F)(F)F)c(F)c1F` (repeat unit), 94.00 °C.
To `*Oc1cc(C(=O)c2ccccc2)c(Oc2ccc(*)cc2)cc1C(=O)c1ccccc1` (repeat unit) belongs 137.00 °C; to `*Oc1ccc(C(=O)c2ccc(Oc3ccc(C(=O)c4ccc(Oc5cccc(Cc6cccc(*)c6)c5)cc4)cc3)cc2)cc1` (repeat unit), 123.00 °C.
As to `*Oc1ccc(C2(c3ccc(OC(*)=O)cc3)CC3CCC2C3)cc1` (repeat unit), the glass transition temperature came to 235.00 °C.
To `*Oc1ccc(C2(c3ccc(OC(*)=O)cc3)CCCCCC2)cc1` (repeat unit) belongs 155.00 °C.
Turning to `*Oc1ccc(C2(c3ccc(OC(*)=O)cc3)CCc3ccccc32)cc1` (repeat unit), the glass transition temperature amounted to 219.00 °C.
`*Oc1ccc(Cc2ccc(Cc3ccc(OC(*)=O)cc3)cc2)cc1` (repeat unit) came in with a glass transition temperature of 79.50 °C.
To `*Oc1ccc(Cc2ccc(OC(*)=S)cc2)cc1` (repeat unit) belongs 95.00 °C.
With `*Oc1ccc(OC(=O)c2cc(OCCCCCCCCCCC(F)(F)C(F)(F)C(F)(F)C(F)(F)C(F)(F)C(F)(F)C(F)(F)C(F)(F)C(F)(F)C(F)(F)F)cc(C(*)=O)c2)cc1` (repeat unit) the figure was 137.00 °C; with `*Oc1ccc(OC(=O)c2cc(OCCCCCCCCCCOCC3CCCN3c3ccc([N+](=O)[O-])cc3)c(C(*)=O)cc2OCCCCCCCCCCOCC2CCCN2c2ccc([N+](=O)[O-])cc2)cc1` (repeat unit), 30.00 °C.
To `*Oc1ccc(OC(=O)c2cc(OCCCCCCOCC3CCCN3c3ccc([N+](=O)[O-])cc3)c(C(*)=O)cc2OCCCCCCOCC2CCCN2c2ccc([N+](=O)[O-])cc2)cc1` (repeat unit) belongs 56.00 °C; to `*Oc1ccc(OC(=O)c2cc(OCCCCCOCC3CCCN3c3ccc([N+](=O)[O-])cc3)c(C(*)=O)cc2OCCCCCOCC2CCCN2c2ccc([N+](=O)[O-])cc2)cc1` (repeat unit), 63.00 °C.
`*Oc1ccc(OC(=O)c2ccc(-c3ccc(C(*)=O)cc3)cc2-c2ccccc2)c2ccccc12` (repeat unit) came in with a glass transition temperature of 165.00 °C.
To `*Oc1ccc(OC(=O)c2ccc(-c3ccc(C(*)=O)cc3)cc2-c2ccccc2)cc1-c1ccccc1` (repeat unit) belongs 148.00 °C.
With `*Oc1ccc(OC(=O)c2ccc(C(*)=O)cc2)cc1C1CCCCCCC1` (repeat unit) the figure was 213.00 °C.
To `*Oc1ccc(OC(=O)c2ccc(C(*)=O)cc2Oc2ccc(-c3ccccc3)cc2)cc1` (repeat unit) belongs 117.00 °C; to `*Oc1ccc(OC(=O)c2ccc(C(*)=O)cc2Oc2ccc(Br)cc2)cc1` (repeat unit), 108.00 °C.
`*Oc1ccc(OC(=O)c2ccc(C(*)=O)cc2Oc2ccc(Cl)cc2)cc1` (repeat unit) gave a glass transition temperature of 107.00 °C.
To `*Oc1ccc(OC(=O)c2ccc(C(*)=O)cc2Sc2ccc(Cl)cc2)cc1` (repeat unit) belongs 140.00 °C; to `*Oc1ccc(OC(=O)c2ccc(C(*)=O)cc2Sc2ccc3ccccc3c2)cc1` (repeat unit), 148.00 °C.
With `*Oc1ccc(OC(=O)c2cccc(Oc3cccc(C(*)=O)c3)c2)cc1` (repeat unit) the figure was 119.00 °C; with `*Oc1ccc(Oc2ccc(/C=N/CCCC/N=C/c3ccc(*)cc3)cc2)cc1` (repeat unit), 105.00 °C; with `*Oc1ccc(Oc2ccc(NC(=O)c3cccc(C(=O)Nc4ccc(*)cc4)c3)cc2)cc1C(C)(C)C` (repeat unit), 208.00 °C.
As for `*Oc1ccc(Oc2ccc(S(=O)(=O)c3ccc(Oc4ccc(C(=O)c5ccc(*)cc5)cc4)cc3)cc2)cc1` (repeat unit), the glass transition temperature came out at 186.00 °C.
With `*Oc1ccc2cc(Oc3ccc(S(=O)(=O)c4ccc(Oc5ccc(C(=O)c6ccc(*)cc6)cc5)cc4)cc3)ccc2c1` (repeat unit) the figure was 199.00 °C.
To `*Oc1cccc(C(=O)c2ccc(Oc3ccc(C(=O)c4ccc(*)cc4)cc3)cc2)c1` (repeat unit) belongs 146.00 °C; to `*c1ccc(Cc2ccc(N3C(=O)c4ccc(Oc5ccc(C6(c7ccc(Oc8ccc9c(c8)C(=O)N(*)C9=O)cc7)CCC(c7ccccc7)CC6)cc5)cc4C3=O)cc2)cc1` (repeat unit), 232.00 °C.
With `*c1ccc(Cc2ccc(N3C(=O)c4ccc(Oc5ccc(C6(c7ccc(Oc8ccc9c(c8)C(=O)N(*)C9=O)cc7)CCCCCCCCCCC6)cc5)cc4C3=O)cc2)cc1` (repeat unit) the figure was 240.00 °C.
`*c1ccc(OC(=O)Oc2ccc(C3(*)OC(=O)c4ccccc43)cc2)cc1` (repeat unit) registered a glass transition temperature of 252.20 °C.
To `*c1ccc(Oc2cc(C(C)(C)C)c(Oc3ccc(N4C(=O)c5ccc(-c6ccc7c(c6)C(=O)N(*)C7=O)cc5C4=O)cc3)cc2C(C)(C)C)cc1` (repeat unit) belongs 293.00 °C; to `*c1ccc(Oc2cc(C(C)(C)C)c(Oc3ccc(N4C(=O)c5ccc(Oc6ccc7c(c6)C(=O)N(*)C7=O)cc5C4=O)cc3)cc2C(C)(C)C)cc1` (repeat unit), 242.00 °C.
To `*c1ccc(Oc2cc(C(C)(C)C)c(Oc3ccc(N4C(=O)c5ccc(S(=O)(=O)c6ccc7c(c6)C(=O)N(*)C7=O)cc5C4=O)cc3)cc2C(C)(C)C)cc1` (repeat unit) belongs 263.00 °C; to `*c1ccc(Oc2cc(C(C)(C)C)ccc2Oc2ccc(N3C(=O)c4ccc(-c5ccc6c(c5)C(=O)N(*)C6=O)cc4C3=O)cc2)cc1` (repeat unit), 257.00 °C.
Take `*c1ccc(Oc2ccc(C3(c4ccc(Oc5ccc(N6C(=O)c7ccc(Oc8ccc(C9(c%10ccc(Oc%11ccc%12c(c%11)C(=O)N(*)C%12=O)cc%10)CCC(c%10ccccc%10)CC9)cc8)cc7C6=O)cc5)cc4)CC4CC3C3CCCC43)cc2)cc1` (repeat unit): the glass transition temperature was 255.00 °C.
With `*c1ccc(Oc2ccc(N3C(=O)c4ccc(Oc5ccc(C(=O)c6ccc(Oc7ccc8c(c7)C(=O)N(*)C8=O)cc6)cc5)cc4C3=O)cc2)cc1` (repeat unit) the figure was 210.00 °C.
To `*c1ccc(Oc2ccc(Oc3ccc(N4C(=O)c5ccc(Oc6ccc(C(c7ccccc7)(c7ccccc7)c7ccc(Oc8ccc9c(c8)C(=O)N(*)C9=O)cc7)cc6)cc5C4=O)cc3)c(C(C)(C)C)c2)cc1` (repeat unit) belongs 229.00 °C; to `*c1ccc(Oc2ccc(Oc3ccc(N4C(=O)c5ccc(Oc6ccc(C7(c8ccc(Oc9ccc%10c(c9)C(=O)N(*)C%10=O)cc8)CCC(C(C)(C)C)CC7)cc6)cc5C4=O)cc3)c(C(C)(C)C)c2)cc1` (repeat unit), 233.00 °C.
To `*c1ccc(Oc2cccc(Oc3ccc(N4C(=O)c5ccc(-c6ccc7c(c6)C(=O)N(*)C7=O)cc5C4=O)cc3)c2C#N)cc1` (repeat unit) belongs 271.00 °C; to `*c1ccc2c(c1)C(=O)N(c1ccc(Oc3ccc(N4C(=O)c5ccc(C(*)(C(F)(F)F)C(F)(F)F)cc5C4=O)cc3)c(OCCN(CC)c3ccc(/N=N/c4ccc([N+](=O)[O-])cc4)cc3)c1)C2=O` (repeat unit), 202.00 °C.

The record behind these values is the PolyMetriX glass transition set.
